Results on two compounds are retold here after US10266545B2, “Coumarin derivative as antiviral agent, pharmaceutical composition thereof, its preparation and use” (I-NOVA MEDICINSKA ISTRAZIVANJA D.O.O., priority 2016, dated 2019).

Assay [1] deals with replication of HIV-1 in the infected MT-4 cells (endogenous RT). Nature of the assay: Endogenous RT activity in culture fluid of HIV-1 infected MT-4 cells (HS-Lenti RT activity kit). In kind it is cell-based, HIV-1 subtype B. The settings on record: for inhibition at 0.1 µM: 0.0001 mM; for inhibition at 5 µM: 0.005 mM; for inhibition at 10 µM: 0.01 mM. On the procedure:
Furthermore, antiviral activity of compound 1 was studied on reverse transcriptase (RT) activity to elucidate potential mechanism of its antiviral action. This was done by using MT-4 cell line which […] with HIV-1. Source of HIV-1 culture fluid was chronically infected and producing HIV-1 subtype B cell line H9/HTLV III B.
Reverse transcriptase (RT) activity was determined: • (a) in the culture fluid of infected HIV-1 MT-4 cells at 72 hours after their infection (viral control); • (b) in the culture fluid of non-infected with HIV-1 cells at 72 hours and culturing without the addition of any substance (cell control); and • (c) in the culture fluid infected with HIV-1 MT-4 cells at 72 hours after infecting them, in which the desired concentration of the test compound 1 or the control compound 2 to the growth medium was added.
RT activity was determined according to the instructions of the producer. Separately was reported RT activity of standard recombinant reverse transcriptase (rRT), available in every kit. It was prepared 12-fold dilutions of the standard rRT. The manufacturer provides data on the amount of rRT in pg/well and pg/ml for each 12-fold dilution. The method used represents colorimetric method for non-radioactive determination of RT activity. It includes two stages: • (1) the synthesis of reverse transcript at the 3- or 24-hours incubation at 33° C. (which was determined experimentally); and • (2) quantitative determination of the resulting product.
In the synthesis of DNA using bromine deoxyuridine triphosphate (Brd UTP), which enter into the composition of the reaction mixture. It is included in the structure of the matrix/primer making up the DNA chain. Determination of incorporated Brd UTP was done by tracer-antibody Brd UTP, conjugated to the enzyme alkaline phosphatase. Followed colorimetrically determining the absorbance at A405 nm, which is proportional to the RT activity in the sample. According to the manufacturer, RT activity was considered positive when A405 values for the sample exceeded at least 2 times the values of A405 for negative control. Otherwise the sample was reported as such lacking RT activity, i.e. negative. The test was done by comparing the RT activity in the virus controls (100%) reported with viral RT activity in the wells treated with the test substance in the different concentrations in strict absence of RT activity in control cells. Percent inhibition of replication using the RT test was expressed as the difference between 100% (positive viral control without inhibitor) and % reported RT activity in the wells treated with the inhibitor (compounds 1 or 2) at various concentrations.
The measurement of RT activity is a widespread method for the quantitative determination of retroviruses replication. In the experimental set-up, primarily endogenous activity in supernatants was measured, i.e. in the culture fluid of virus infected cells and treated/untreated with inhibitor at 72 hours after cultivation.
For the control, commonly used substance with proven antiviral activity was employed; in our case, we used Kivexa, which contains 600 mg Abacavir and 300 mg of Lamivudine, which is applied in clinical practice as nucleoside inhibitor of RT. In the presence of RT inhibition in the test, it is concluded that not only the replication of the virus is inhibited, but also probably the target of the inhibitory effect is RT itself. To confirm this conclusion, it is necessary that percentage (%) of inhibition of the RT coincides with the % inhibition in the microtiter MTT assay. […] Reaction mixture supplemented with inhibitor was prepared at desired concentration for the assay, and then, to the mixture, recombinant RT was added with a known activity and concentration. After incubation, we determined whether the activity of the enzyme shall be amended (inhibited) by action of the compounds 1 or 2. […]

In another assay the test system is HIV-1. Briefly: Viral load by FDA approved Real-Time PCR test (Abbott m2000) in HIV-1 infected MT-4 cells. In kind it is cell-based, HIV-1 subtype B. Particulars: acute infected MT-4 cells with HIV-1, treated at MNC 0.01 mM. On the procedure:
The preparation of the MT-4 cell line and HIV-1 culture was the same as in previously described studies. Monitoring of the amount of virions during anti-viral analysis by measuring of the viral load with FDA approved test was performed as follows: The study was conducted with Real-Time polymerase chain reaction (PCR) test for in vitro quantitative assay of HIV-I with automated system Abbott Molecular's m2000, approved by the United States (US) Food and Drug Administration (FDA), and with the CE mark. Extraction of viral nucleic acid was carried out with an automatic extractor with magnetic particles—Abbott Molecular's m2000sp and Real-Time amplification; detection was performed with m2000rt. The sensitivity and range of the test was 40 (1.6 log copies/ml) to 10,000,000 (7.0 log copies/ml) copies/ml by the extraction of 1 ml of sample. The target region of the viral genome was a fragment of the integrase gene pol. The test was designed to detect HIV-1 subtypes A-H, group […] and N. In every test sample, an internal control was placed.
The study included three controls: negative, low positive, and high positive with the following result: • (i) negative control—result negative (not detected); • (ii) low positive control—result 938 copies/ml (2.97 log) control levels; and • (iii) high positive control—result 92,927 copies/ml (4.97 log) control levels. […]
(In general: Real-time PCR tracks product formation cycle by cycle.)

[2] abbreviates: Human immunodeficiency virus 1, MT4, endogenous RT in culture liquid.

As usually defined, the inhibition is the change of the read-out against control, counted positive when it falls. Read a low inhibition as a response near the control. In assay [1] (Human immunodeficiency virus 1, MT4, endogenous RT in culture liquid, 0.000001 mM), `O=c1oc2cc(O)cc(O)c2c(O)c1-c1coc2c1c(=O)oc1cc(O)cc(O)c12` [Compound 1, 7,9-dihydroxy-3-(4,5,7-trihydroxy-2-oxo-2H-chromene-3-yl)-4H-furo[3,2-c]chromen-4-one] yielded an inhibition at 0.001 µM of 1.3%. In addition, the inhibition at 0.01 µM in assay [1] (Human immunodeficiency virus 1, MT4, endogenous RT in culture liquid, 0.00001 mM) is 50.7%. In assay [1] (setting [2]), this compound gave an inhibition at 0.1 µM of 55%, an inhibition at 5 µM of 76.6% and an inhibition at 10 µM of 89%. Also, the “inhibition of HIV-1 infectivity in MT-4 cells” value in assay [1] (Table 4) is greater than 89%. Also, in the assay with HIV-1, the “Viral load (log)” value is “(3.01 log)”.
In assay [1] (setting [2]), `O=c1oc2cc(O)c(O)cc2c(O)c1-c1coc2c1c(=O)oc1cc(O)c(O)cc12` [Compound 2, 7,8-dihydroxy-3-(4,6,7-trihydroxy-2-oxo-2H-chromen-3-yl)-4H-furo[3,2-c]chromen-4-one, reference compound] showed an inhibition at 0.1 µM of 0%, an inhibition at 5 µM of 51% and an inhibition at 10 µM of 56.3%. In addition, in assay [1] (Human immunodeficiency virus 1, MT4, endogenous RT in culture liquid, 0.001 mM), the inhibition at 1 µM was determined as 25.7%. In addition, the “Viral load (log)” value in the assay with HIV-1 was “(3.09 log)”.
